For data set [1] the following is noted: background art; cited from earlier work.
Data set [2] is described as follows: Heat resistance: fluorescent biotin-binding activity of heated biotin-binding proteins. As to conditions: for temperature which caused a 50% reduction in fluorescence intensity decrement compared to the unheated sample: free protein, heated 20 minutes; for reduction of binding activity to fluorescent biotin: 20 minutes. As to the method:
Based on the property of fluorescent biotin to lose its fluorescence intensity when bound to a biotin-binding site in a biotin-binding protein, tamavidin 2 was compared with streptavidin and avidin for biotin-binding capacity under high temperature conditions.
About 0.25 μg/μL TM2 and streptavidin were heated at room temperature, 50° C., 60° C., 70° C., 80° C. or 90° C. for 20 minutes. Solutions were prepared to contain the heat-treated TM2 or streptavidin at stepwise concentrations from 0 μL to 27 μL in 150 μL assay buffer (50 mM NaH2PO4, 100 mM NaCl, 1 mM EDTA (pH 7.5)). These solutions were each mixed with 50 μL (250 pmol) of a 5 pmol/μL fluorescent biotin solution (biotin-4-fluorescein; Molecular Probe) and allowed to stand at room temperature for 20 minutes, followed by measuring the fluorescence intensity with a Las-3000 system (FUJIFILM).
Heat resistance test on the biotin-binding proteins was accomplished as follows. About 0.25 μg/μL biotin-binding protein was heated at room temperature, 50° C., 60° C., 70° C., 80° C. or 90° C. for 20 minutes. Solutions were prepared to contain the heated biotin-binding protein at stepwise concentrations from 0 μL to 12 μL in 150 μL assay buffer. These solutions were each mixed with 50 μL (100 pmol) of a 2 pmol/μL fluorescent biotin solution and allowed to stand at room temperature for 20 minutes, followed by measuring the fluorescence intensity at Ex=460 nm and Em=525 nm with an Infinite M200 (TECAN).

A short description of data set [3]: Heat resistance: protein stability (heating, SDS-PAGE band quantification). It is filed as physicochemical. As to conditions: heated 20 minutes, soluble protein, SDS-PAGE, no biotin. As to the method: (§1) 0.2 μg/μL TM2 and 0.2 μg/μL streptavidin were heated in 10 μL (2 μg) volumes at room temperature, 50° C., 60° C., 70° C., 80° C., 90° C. or 99° C. for 20 minutes, followed by centrifugation at 15000 rpm for 10 minutes. Each supernatant (soluble protein) was suspended in an equal volume of 2×SDS sample buffer (100 mM Tris-HCl pH 6.8, 12% 2-mercaptoethanol, 2% SDS, 20% glycerol), heated at 95° C. for 10 minutes and then analyzed by SDS-PAGE. Protein bands were detected by CBB staining. Using a Las-3000 system (FUJIFILM), a calibration curve was prepared based on quantification markers (LMW ELECTROPHORESIS CALIBRATION KIT; Pharmacia Biotech) and used to quantify the protein bands. […]
as §1, with “Purified tamavidin 1 at a concentration of 0.2” for “0.2”, “was” for “TM2 and 0.2 μg/μL streptavidin were”

Data set [4] in a line: Kinetic analysis of tamavidin 2-biotin interaction using a Biacore 3000 biosensor (surface plasmon resonance). It is filed as binding. As to conditions: Biacore 3000, 25° C. As to the method:
Kinetic Analysis of Tamavidin 2 (TM2)-Biotin Interaction Using a Biacore Biosensor
Highly-purified BSA (2 mg, Sigma) and NHS-biotin (1 mg, Pierce) were dissolved in 1 ml of 50 mM sodium borate pH 8.0 and incubated at 4° C. for 2 hours. The NHS-biotin (EZ-Link NHS-LC-LC-Biotin) had been dissolved in a small volume of DMSO before addition. This solution was introduced into a dialysis tube (MWCO 6-8,000) and dialyzed overnight at 4° C. against 50 mM sodium carbonate pH 6.7. The biotin-BSA conjugate thus prepared (MW 67 kDa, 30 μM) was used as a ligand (a substance immobilized on a sensor chip) for a Biacore® biosensor. On the other hand, recombinant tamavidin 2 was prepared as an analyte (a substance flowing through channels) and analyzed for intermolecular interactions using a Biacore® 3000 (a biosensor designed on the principle of surface plasmon resonance, Biacore Inc.). Biotin-BSA and BSA alone (serving as a negative control) were each immobilized on CM5 sensor chips by amine coupling techniques. Their immobilized amount was adjusted to around 200 RU. BSA-immobilized chips were placed in flow cells 1 and 3, while biotin-BSA-immobilized chips were placed in flow cells 2 and 4. Tamavidin 2 was loaded into flow cells 1 and 2, while streptavidin was loaded into flow cells 3 and 4, each being loaded at a flow rate of 20 μl/min for 2 minutes in running buffer [10 mM HEPES pH 7.4, 150 mM NaCl, 3 mM EDTA, 0.005% Surfactant 20 (Biacore Inc.)]. The samples were then monitored for their dissociation over 60 minutes. […] The dissociation constant (Kd) was determined from kd/ka.
It should be noted that when the regeneration step was skipped, Rmax (the maximum binding amount of an analyte) was reduced ever time the measurement at each concentration was made. For this reason, Rmax was calculated by local fitting for each concentration during analysis. […]

In another data set the test system is salmon sperm DNA. Briefly: Test for non-specific binding to DNA (slot blot, antibody detection). As to conditions: 25 μg/mL protein, salmon sperm DNA 10 μg to 0.3 μg on membrane. The procedure:
TM2 was analyzed for its non-specific binding to DNA. Serial dilutions of salmon sperm DNA (10 μg to 0.3 μg) in 2×SSC buffer were alkali-denatured and adsorbed onto a Hybond N+ membrane (Amersham Biosciences) using Bio-Dot SF (BIO-RAD). The membrane was blocked with 5×Denhardt's solution (0.1% BSA, 0.1% Ficoll, 0, 1% polyvinylpyrrolidone) and then immersed in a 25 μg/mL TM2, streptavidin or avidin solution at room temperature for 90 minutes. The membrane was then washed three times with TTBS buffer (TBS buffer containing 0.05% Tween 20) at room temperature for 5 minutes. The membrane was blocked with TBS buffer containing 0.5% skimmed milk and 0.01% Tween 20 for 1 hour. The primary antibodies used were rabbit anti-TM2 antibody (purified as described above) for TM2, rabbit anti-streptavidin antibody (SIGMA) for streptavidin, and rabbit anti-avidin antibody (Abcam) for avidin, which were diluted to give the same antibody titer before use. Antigen-antibody reaction with each primary antibody was performed overnight at room temperature. […] The membrane was washed three times with TTBS buffer at room temperature for 5 minutes, and then developed with an Alkaline Phosphatase substrate kit II, vector Black (Funakoshi Co., Ltd., Japan), followed by quantification with a Las-3000 system (FUJIFILM).

Data set [5] is described as follows: Activity measurement by means of fluorescent biotin (method of Kada et al.). Type of data set: binding. Particulars: room temperature, 10 minutes. As to the method: By means of fluorescent biotin, tamavidin 2 was measured for its biotin-binding activity according to the method of Kada et al. (Biochim. Biophys. Acta., 1427: 44-48, (1999)). Solutions were prepared to contain the purified TM2 at stepwise concentrations from 0 pmol to 486 pmol in 200 μl assay buffer (50 mM NaH2PO4, 100 mM NaCl, 1 mM EDTA (pH 7.5)). These solutions were each mixed with 50 μL (1 nmol) of a 20 pmol/μL fluorescent biotin solution (biotin-4-fluorescein; Molecular Probe) and allowed to stand at room temperature for 10 minutes, followed by measuring the fluorescence intensity with a Las-3000 system (FUJIFILM). As a result, 0.274 nmol of TM2 was bound to nmol of fluorescent biotin. Namely, 3.6 mol of fluorescent biotin was bound to 1 mol of tamavidin. […] In the case of streptavidin, 3.4 mol of fluorescent biotin was bound per mol of streptavidin.

Setting [6] is: 1:1 binding model, biotin-BSA ligand.

Take “Streptavidin: biotin-binding protein derived from an actinomycete strain (Streptomyces avidinii) [reference compound]”: the isoelectric point result in data set [1] is “around neutral pH”. Besides, the “temperature which caused a 50% reduction in fluorescence intensity decrement compared to the unheated sample” value in data set [2] was 73 °C. In addition, the “reduction of binding activity to fluorescent biotin” value in data set [2] (heated at 70° C.) was determined as 40%; in data set [2] (heated at 80° C.), 80%. In data set [3], the “temperature which caused a 50% reduction in protein band intensity” value is 71 °C. The “Association rate constant ks” value in data set [4] (setting [6]) worked out at 2.28e+06 M⁻¹ s⁻¹. Further, in data set [4] (setting [6]), the “Dissociation rate constant kd” value was found to be 2.52e-06 s⁻¹. Besides, the Kd in data set [4] (determined from kd/ka, read-out: Dissociation constant Kd) came out at 1.11 pM. Besides, the “non-specific binding to DNA (staining intensity versus DNA concentration)” value in the data set on salmon sperm DNA is on record as “not strongly affected by DNA concentration”. In data set [5], the “fluorescent biotin bound per mol of protein” value is 3.4 mol.
Turning to “avidin: albumen-derived basic glycoprotein binding biotin”, the isoelectric point result in data set [1] is recorded as “exceeding 10”. Moreover, the “temperature which caused a 50% reduction in fluorescence intensity decrement compared to the unheated sample” value in data set [2] worked out at 78 °C. For the same substance, the figures for the “reduction of binding activity to fluorescent biotin” value in data set [2] (heated at 70° C.) and in data set [2] (heated at 80° C.) were 10% and 70%, respectively. The “non-specific binding to DNA (staining intensity versus DNA concentration)” value in the data set on salmon sperm DNA was “DNA concentration-dependent increase in its staining intensity”.

(Values after patent US8957190B2, “Use of heat-resistant biotin-binding protein, and solid support having the protein attached thereto” (Japan Tobacco Inc., priority 2006, dated 2015).)
